Results: the CheMixHub drug solubility set

Assay: xn = mol fraction of the nth substance listed, in the solute-free solvent

Cc1nc2n(c(=O)c1CCN1CCC(c3noc4cc(F)ccc34)CC1)CCCC2 + CC(C)=O + O
solubility (g/100 g solution)
Settings	278.15 K	283.15 K	288.15 K	293.15 K	298.15 K	303.15 K	308.15 K	313.15 K
x2 = 0.1175	0.369	0.399	0.453	0.525	0.623	0.702	0.817	0.918
x2 = 0.1714	0.727	0.805	0.935	1.11	1.27	1.53	1.7	2.03
x2 = 0.2368	1.54	1.75	2.02	2.34	2.73	3.22	3.75	4.38
x2 = 0.3171	2.54	2.93	3.36	3.95	4.61	5.44	6.41	7.62
x2 = 0.42	3.38	3.87	4.49	5.26	6.16	7.21	8.51	10.1
x2 = 0.5538	3.5	4.03	4.71	5.51	6.46	7.65	9.06	10.7
x2 = 0.7366	2.51	2.92	3.5	4.08	4.75	5.67	6.67	7.88

Cc1ncc(CO)c(CO)c1O.Cl + O + CCCO
solubility (g/100 g solution)
Settings	278.15 K	283.15 K	288.15 K	293.15 K	298.15 K	303.15 K	308.15 K	313.15 K
x2 = 0.3	0.893	1.08	1.2	1.42	1.8	2.05	2.29	2.62
x2 = 0.4	1.59	1.9	2.23	2.65	3.25	3.59	4.15	4.99
x2 = 0.5	2.6	3.07	3.42	4.1	5	5.68	6.43	7.5
x2 = 0.6	3.83	4.45	4.91	6.02	7.03	8.29	9.47	11.3
x2 = 0.7	5.37	6.24	6.84	8.27	9.8	11.7	13.3	15.1
x2 = 0.8	6.99	8.36	9.28	10.7	12.8	15.4	17.8	19.6
x2 = 0.9	8.57	10.3	11.9	13.8	16	19	21.1	24.1

CC(S)C(=O)NCC(=O)O (centres undefined) + CC(C)CO + Cc1ccccc1
solubility (g/100 g solution)
Settings	273.15 K	278.15 K	283.15 K	288.15 K	293.15 K	298.15 K	303.15 K	308.15 K	313.15 K	318.15 K
x2 = 0.2371	0.622	0.677	0.744	0.819	0.9	0.989	1.09	1.21	1.34	1.48
x2 = 0.4531	1.14	1.3	1.45	1.64	1.87	2.12	2.37	2.63	2.92	3.35
x2 = 0.6509	1.71	1.98	2.28	2.67	3.04	3.56	4.09	4.71	5.39	6.3
x2 = 0.8325	2.92	3.45	4.01	4.57	5.19	5.87	6.57	7.38	8.31	9.34

Cc1ncc(CO)c(CO)c1O.Cl + O + CC#N
solubility (g/100 g solution)
Settings	278.15 K	283.15 K	288.15 K	293.15 K	298.15 K	303.15 K	308.15 K	313.15 K
x2 = 0.3	0.681	0.776	0.889	1.02	1.16	1.3	1.47	1.67
x2 = 0.4	2.06	2.27	2.65	2.92	3.32	3.7	4.04	4.51
x2 = 0.5	3.81	4.09	4.73	5.11	5.79	6.6	7.19	8.12
x2 = 0.6	5.82	6.51	7.44	8.31	9.5	10.3	11.2	12.6
x2 = 0.7	8.18	9.25	10.4	11.8	13.4	14.2	15.5	17.9
x2 = 0.8	10.6	11.9	13.4	15.2	16.6	18.3	20	23.4
x2 = 0.9	11.5	13.3	14.6	17	18.6	20.7	22.7	26.3

NC(=O)NC1NC(=O)NC1=O (centres undefined) + O + CCO
solubility (g/100 g solution)
Settings	288.15 K	293.15 K	298.15 K	303.15 K	308.15 K	313.15 K	318.15 K	323.15 K	328.15 K	333.15 K
x2 = 0.264	0.0433	0.0548	0.0707	0.0891	0.116	0.137	0.163	0.189	0.225	0.262
x2 = 0.447	0.0924	0.108	0.137	0.174	0.216	0.263	0.298	0.355	0.417	0.46
x2 = 0.683	0.159	0.202	0.268	0.332	0.409	0.535	0.646	0.76	0.923	1.09
x2 = 0.829	0.239	0.306	0.394	0.487	0.63	0.785	1.02	1.21	1.48	1.74
x2 = 0.928	0.264	0.353	0.5	0.619	0.787	0.968	1.3	1.58	1.97	2.33

Cc1nc2n(c(=O)c1CCN1CCC(c3noc4cc(F)ccc34)CC1)CCCC2 + CCO + O
solubility (g/100 g solution)
Settings	278.15 K	283.15 K	288.15 K	293.15 K	298.15 K	303.15 K	308.15 K	313.15 K
x2 = 0.1436	0.173	0.214	0.262	0.329	0.397	0.487	0.592	0.73
x2 = 0.2069	0.628	0.744	0.919	1.1	1.4	1.68	2.06	2.58
x2 = 0.2812	1.72	2.03	2.47	2.94	3.58	4.32	5.34	6.64
x2 = 0.3627	3.31	3.98	4.66	5.53	6.67	8.06	9.77	12
x2 = 0.4768	4.74	5.58	6.59	7.76	9.19	11	13.2	15.9
x2 = 0.6101	4.86	5.65	6.62	7.77	9.18	10.8	12.9	15.2
x2 = 0.779	3.01	3.56	4.18	4.97	5.91	7.06	8.5	10.1

CCOC(=O)OC1=C(c2cc(C)ccc2C)C(=O)NC12CCC(OC)CC2 (centres undefined) + CC(C)=O + O
solubility (g/100 g solution)
Settings	278.15 K	283.15 K	288.15 K	293.15 K	298.15 K	303.15 K	308.15 K	313.15 K	318.15 K
x2 = 0.2	0.475	0.687	0.839	1.08	1.39	1.78	2.25	2.83	3.61
x2 = 0.4	3.7	4.54	5.58	6.92	8.55	10.5	12.8	15.7	19
x2 = 0.6	7.51	9.16	10.8	13	15.4	18.3	21.6	25.5	29.7
x2 = 0.8	9.34	10.6	12.6	14.8	17.3	20.3	23.7	27.4	31.4

CCOc1ccccc1C(N)=O + CC(C)O + CC#N
293.15 K
Settings	solubility (g/100 g solution)
x2 = 0.1	3.74
x2 = 0.2	4.36
x2 = 0.3	4.92
x2 = 0.4	5.26
x2 = 0.5	5.44
x2 = 0.6	5.14
x2 = 0.7	4.81
x2 = 0.8	4.2
x2 = 0.9	3.48
